# Measured values published in PubChem BioAssay AID330 (DTP/NCI, 2004).
# “And” between values parts separate entries of the source, which are not always exact repeats. Equal values may be shown once. Inconclusive results and toxic doses are left out.
# System: P388 leukemia ip, CD2F1 mice, survival T/C
# Assay: NCI In Vivo Anticancer Drug Screen. Data for tumor model P388 Leukemia (intraperitoneal) in CD2F1 (CDF1) mice
# Conditions: endpoint: median survival time, higher = longer survival
# How it was run: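 Mice carrying the transplanted tumor received test compound or vehicle. Survival was recorded in each group, and the value is the treated-group measurement divided by that of the vehicle-treated control group.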
# [1] = dose: 50.0 mg/kg/injection, schedule: Q01DX005 (ip), vehicle: Klucel (hydroxypropylcellulose) (HPC)
# [2] = dose: 100.0 mg/kg/injection, schedule: Q01DX005 (ip), vehicle: Klucel (hydroxypropylcellulose) (HPC)
# [3] = dose: 200.0 mg/kg/injection, schedule: Q01DX005 (ip), vehicle: Klucel (hydroxypropylcellulose) (HPC)
# [4] = dose: 50.0 mg/kg/injection, schedule: Q01DX005 (ip), vehicle: saline with Tween-80
# [5] = dose: 100.0 mg/kg/injection, schedule: Q01DX005 (ip), vehicle: saline with Tween-80
# [6] = dose: 200.0 mg/kg/injection, schedule: Q01DX005 (ip), vehicle: saline with Tween-80
# [7] = dose: 100.0 mg/kg/injection, schedule: Q01DX001 (ip), vehicle: saline
# [8] = dose: 200.0 mg/kg/injection, schedule: Q01DX001 (ip), vehicle: saline
# [9] = dose: 400.0 mg/kg/injection, schedule: Q01DX001 (ip), vehicle: saline
# [10] = dose: 25.0 mg/kg/injection, schedule: Q01DX009 (ip), vehicle: saline with Tween-80
# [11] = dose: 50.0 mg/kg/injection, schedule: Q01DX009 (ip), vehicle: saline with Tween-80
# [12] = dose: 100.0 mg/kg/injection, schedule: Q01DX009 (ip), vehicle: saline with Tween-80
# [13] = dose: 25.0 mg/kg/injection, schedule: Q01DX009 (ip), vehicle: Klucel (hydroxypropylcellulose) (HPC)
# [14] = dose: 50.0 mg/kg/injection, schedule: Q01DX009 (ip), vehicle: Klucel (hydroxypropylcellulose) (HPC)
# [15] = dose: 100.0 mg/kg/injection, schedule: Q01DX009 (ip), vehicle: Klucel (hydroxypropylcellulose) (HPC)
# [16] = dose: 200.0 mg/kg/injection, schedule: Q01DX009 (ip), vehicle: Klucel (hydroxypropylcellulose) (HPC)
# [17] = dose: 200.0 mg/kg/injection, schedule: Q01DX009 (ip), vehicle: saline with Tween-80
# [18] = dose: 6.25 mg/kg/injection, schedule: Q01DX005 (ip), vehicle: saline with Tween-80
# [19] = dose: 12.5 mg/kg/injection, schedule: Q01DX005 (ip), vehicle: saline with Tween-80
# [20] = dose: 25.0 mg/kg/injection, schedule: Q01DX005 (ip), vehicle: saline with Tween-80
# [21] = dose: 100.0 mg/kg/injection, schedule: Q04DX002 (ip), vehicle: Klucel (hydroxypropylcellulose) (HPC)
# [22] = dose: 200.0 mg/kg/injection, schedule: Q04DX002 (ip), vehicle: Klucel (hydroxypropylcellulose) (HPC)
# [23] = dose: 400.0 mg/kg/injection, schedule: Q04DX002 (ip), vehicle: Klucel (hydroxypropylcellulose) (HPC)
smiles,measurement,setting,value
O=C1C2C3C=CC(C2C(=O)N1Cc1ccccc1)C1C2C(=O)N(Cc4ccccc4)C(=O)C2C31 (stereo not given),T/C,"dose: 12.5 mg/kg/injection, schedule: Q01DX001 (ip), vehicle: saline with Tween-80",101 % of control
same,T/C,"dose: 25.0 mg/kg/injection, schedule: Q01DX001 (ip), vehicle: saline with Tween-80",90 % of control
Cc1nc2c3c4c(sc3nc(C)n2n1)CCCC4,T/C,[1],105 % of control
same,T/C,[2],100 % of control
same,T/C,[3],98 % of control
COc1cccc(-n2c(=S)[nH]c3ccccc3c2=O)c1,T/C,[4],93 % of control
same,T/C,[5],87 % of control
same,T/C,[6],89 % of control
Cc1ccc(S(=O)(=O)c2cnc(N)nc2N)cc1,T/C,[7],98 % of control
same,T/C,[8],95 % of control
same,T/C,[9],95 % of control
COC(=O)c1ccc(Cl)cc1OC,T/C,"dose: 12.5 mg/kg/injection, schedule: Q01DX009 (ip), vehicle: distilled water + Tween-80",101 % of control
same,T/C,"dose: 25.0 mg/kg/injection, schedule: Q01DX009 (ip), vehicle: distilled water + Tween-80",99 % of control
same,T/C,"dose: 50.0 mg/kg/injection, schedule: Q01DX009 (ip), vehicle: distilled water + Tween-80",99 % of control
same,T/C,"dose: 100.0 mg/kg/injection, schedule: Q01DX009 (ip), vehicle: distilled water + Tween-80",101 % of control
same,T/C,"dose: 200.0 mg/kg/injection, schedule: Q01DX009 (ip), vehicle: distilled water + Tween-80",101 % of control
CCCCN1CN(CCCC)CN(C(=S)c2c(Cl)cccc2Cl)C1,T/C,[10],102 % of control
same,T/C,[11],102 % of control
same,T/C,[12],105 % of control
CCN1Cc2c(/C=C/c3ccccc3)nc3ccc(OC)cc3c2N(c2cccc(Cl)c2)C1,T/C,[13],103 % of control
same,T/C,[14],94 % of control
same,T/C,[15],102 % of control
same,T/C,[16],98 % of control
CC(=O)Nc1cscc1NC(C)=O,T/C,[10],101 % of control
same,T/C,[11],94 % of control
same,T/C,[12],100 % of control
same,T/C,[17],101 % of control
O/N=C(\C[P+](c1ccccc1)(c1ccccc1)c1ccccc1)c1ccccc1,T/C,"dose: 12.5 mg/kg/injection, schedule: Q01DX009 (ip), vehicle: Klucel (hydroxypropylcellulose) (HPC)",100 % of control
same,T/C,[13],99 % of control
same,T/C,[14],102 % of control
N=C1CCC(=N)c2c1c(O)c1ccccc1c2O,T/C,[18],94 % of control
same,T/C,[19],104 % of control
same,T/C,[20],94 % of control
COc1ccc(/C=N/N(C)C(=O)Nc2cccc(Cl)c2)cc1OC,T/C,[11],98 % of control
same,T/C,[12],98 % of control
same,T/C,[17],105 % of control
CCOc1ccc(Nc2ncnc3nc[nH]c23)cc1CN(CCCl)CCCl,T/C,"dose: 0.88 mg/kg/injection, schedule: Q01DX009 (ip), vehicle: saline",154 % of control
same,T/C,"dose: 2.0 mg/kg/injection, schedule: Q01DX009 (ip), vehicle: saline",159 % of control
same,T/C,"dose: 3.0 mg/kg/injection, schedule: Q01DX009 (ip), vehicle: saline",122 % of control
COC1/C=C/OC2(C)Oc3c(C)c(O)c4c(O)c(c(/C=N/N5C(C)CN(Cc6cccc(C#N)c6)CC5C)c(O)c4c3C2=O)NC(=O)/C(C)=C\C=C\C(C)C(O)C(C)C(O)C(C)C(OC(C)=O)C1C (stereo not given),T/C,"dose: 12.5 mg/kg/injection, schedule: Q01DX009 (ip), vehicle: saline with Tween-80",110 % of control
same,T/C,[10],109 % of control
same,T/C,[11],109 % of control and 118 % of control
COc1cccc(C(c2cc3c(cc2O)OCO3)N2CCCC2)c1O (stereo not given),T/C,"dose: 60.0 mg/kg/injection, schedule: Q01DX005 (ip), vehicle: Klucel (hydroxypropylcellulose) (HPC)",109 % of control
same,T/C,"dose: 120.0 mg/kg/injection, schedule: Q01DX005 (ip), vehicle: Klucel (hydroxypropylcellulose) (HPC)",109 % of control
same,T/C,"dose: 240.0 mg/kg/injection, schedule: Q01DX005 (ip), vehicle: Klucel (hydroxypropylcellulose) (HPC)",115 % of control
Clc1ccc(C2=NON(c3ccccn3)C3C=CC=CN23)cc1 (stereo not given),T/C,[4],97 % of control
same,T/C,[5],93 % of control
same,T/C,[6],93 % of control
CC(=O)Oc1cc(C)c(Cl)c2c(OC(C)=O)cc(C(C)=O)c(O)c12,T/C,[14],91 % of control
same,T/C,[15],91 % of control
same,T/C,[16],90 % of control
CNCc1c(O)ccc2c(-c3ccccc3)cc(=O)oc12,T/C,"dose: 100.0 mg/kg/injection, schedule: Q04DX002 (ip), vehicle: saline with Tween-80",100 % of control
same,T/C,"dose: 200.0 mg/kg/injection, schedule: Q04DX002 (ip), vehicle: saline with Tween-80",101 % of control
CCOP(=S)(N/N=C(\C)c1ccc(C)s1)OCC,T/C,[1],104 % of control
same,T/C,[2],113 % of control
same,T/C,[3],114 % of control
COc1ccc2c(c1)C(=O)CC(COS(=O)(=O)c1ccc(C)cc1)C2 (stereo not given),T/C,[11],107 % of control
same,T/C,[12],101 % of control
same,T/C,[17],99 % of control
COc1c(OC(C)=O)ccc2c1C=CCCC2=O,T/C,[12],104 % of control
same,T/C,[17],102 % of control
same,T/C,"dose: 400.0 mg/kg/injection, schedule: Q01DX009 (ip), vehicle: saline with Tween-80",102 % of control
Cc1nccc2c(C)c3c(cc12)c1ccccc1n3C,T/C,"dose: 5.0 mg/kg/injection, schedule: Q01DX005 (ip), vehicle: saline",107 % of control
same,T/C,"dose: 10.0 mg/kg/injection, schedule: Q01DX005 (ip), vehicle: saline",107 % of control
same,T/C,"dose: 20.0 mg/kg/injection, schedule: Q01DX005 (ip), vehicle: saline",99 % of control
Cc1ccc(N=Nc2c(-c3ccccc3)nn(C(=S)S)c2C)cc1,T/C,"dose: 25.0 mg/kg/injection, schedule: Q04DX002 (ip), vehicle: Klucel (hydroxypropylcellulose) (HPC)",97 % of control
same,T/C,"dose: 50.0 mg/kg/injection, schedule: Q04DX002 (ip), vehicle: Klucel (hydroxypropylcellulose) (HPC)",107 % of control
same,T/C,[21],105 % of control
same,T/C,[22],96 % of control
same,T/C,[23],107 % of control
O=C(NCCCBr)c1csc(-c2csc(CCNC(=O)C(F)(F)F)n2)n1,T/C,[18],89 % of control
same,T/C,[19],104 % of control
same,T/C,[20],95 % of control
same,T/C,[4],97 % of control
same,T/C,[5],90 % of control
same,T/C,[6],87 % of control
CC(=O)CCC12CCC(=O)N1Cc1ccccc1C2=O (stereo not given),T/C,"dose: 60.0 mg/kg/injection, schedule: Q01DX005 (ip), vehicle: saline with Tween-80",106 % of control
same,T/C,"dose: 120.0 mg/kg/injection, schedule: Q01DX005 (ip), vehicle: saline with Tween-80",123 % of control
same,T/C,"dose: 240.0 mg/kg/injection, schedule: Q01DX005 (ip), vehicle: saline with Tween-80",106 % of control
C/C=C/C(=O)Oc1ccc[nH]c1=O,T/C,"dose: 25.0 mg/kg/injection, schedule: Q01DX005 (ip), vehicle: Klucel (hydroxypropylcellulose) (HPC)",105 % of control and 91 % of control
same,T/C,[1],114 % of control and 116 % of control
same,T/C,[2],108 % of control and 113 % of control
same,T/C,[3],92 % of control
NS(=O)(=O)c1ccc(NC(=O)Oc2ccc([N+](=O)[O-])cc2)cc1,T/C,"dose: 100.0 mg/kg/injection, schedule: Q01DX001 (ip), vehicle: saline with Tween-80",100 % of control
same,T/C,"dose: 200.0 mg/kg/injection, schedule: Q01DX001 (ip), vehicle: saline with Tween-80",100 % of control
same,T/C,"dose: 400.0 mg/kg/injection, schedule: Q01DX001 (ip), vehicle: saline with Tween-80",104 % of control
COc1c(COC(C)=O)ccc2c1C(=O)c1ccccc1C2=O,T/C,[21],108 % of control
same,T/C,[22],92 % of control
same,T/C,[23],93 % of control
CCOC(=O)C1C(CCC#N)C(=O)CCC1(C#N)c1ccccc1 (stereo not given),T/C,[7],105 % of control
same,T/C,[8],100 % of control
same,T/C,[9],105 % of control
O=C(C(Oc1ccc(Cl)cc1)n1cncn1)N1CCOC1C1CCCCC1 (stereo not given),T/C,"dose: 50.0 mg/kg/injection, schedule: Q01DX001 (ip), vehicle: Klucel (hydroxypropylcellulose) (HPC)",103 % of control
same,T/C,"dose: 100.0 mg/kg/injection, schedule: Q01DX001 (ip), vehicle: Klucel (hydroxypropylcellulose) (HPC)",100 % of control
same,T/C,"dose: 200.0 mg/kg/injection, schedule: Q01DX001 (ip), vehicle: Klucel (hydroxypropylcellulose) (HPC)",100 % of control
